# Paper doi:10.1101/2021.02.22.432404v1 (biorxiv, 2021)
# Molecular target: T1, E. coli thymidylate kinase (TMPK) (Escherichia coli, UniProt P0A720)
# T1 sequence (P0A720 1-213): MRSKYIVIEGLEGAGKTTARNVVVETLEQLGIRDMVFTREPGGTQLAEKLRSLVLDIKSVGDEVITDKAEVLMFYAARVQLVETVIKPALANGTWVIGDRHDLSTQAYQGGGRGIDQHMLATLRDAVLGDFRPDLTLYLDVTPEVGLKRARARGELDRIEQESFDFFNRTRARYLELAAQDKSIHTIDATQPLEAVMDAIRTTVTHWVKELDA
# Test: ATPlite luminescence assay, direction of ATP synthesis
# Format: biochemical
row,IC50,Compound
1,0.41 µM,CCOc1ccc(C=C2SC(S)=NC2=O)cc1OC [compound 9]
2,0.48 µM,COc1cc(C=C2SC(=S)NC2=O)ccc1OC(C)=O [compound 11]
3,0.47 µM,CCOc1cc(C=C2SC(=S)NC2=O)ccc1OC(C)=O [compound 28]
4,0.68 µM,CCOC(=O)COc1ccc(C=C2SC(=S)NC2=O)cc1OC [compound 31]

# Further lines, the compound ahead of its results:
row,Compound,IC50
1,COc1cc(C=C2SC(=S)NC2=O)ccc1OC(C)C [compound 1],0.39 µM
2,COc1ccc(C=C2SC(=S)NC2=O)cc1O [compound 2],2.5 µM
3,COc1cc(C=C2SC(=S)NC2=O)ccc1O [compound 12],0.5 µM
4,C=CCOc1cccc(C=C2SC(=S)NC2=O)c1 [compound 13],1 µM
5,COc1cc(C=C2SC(=S)NC2=O)cc(OC)c1O [compound 27],0.25 µM
